In assay [1] the target is T1, glucocorticoid receptor (GR) (Homo sapiens, UniProt P04150).
T1 construct: made in house; host or cells: Sf9 cells infected with recombinant baculovirus (cytosol preparation)
T1 sequence (P04150 1-777): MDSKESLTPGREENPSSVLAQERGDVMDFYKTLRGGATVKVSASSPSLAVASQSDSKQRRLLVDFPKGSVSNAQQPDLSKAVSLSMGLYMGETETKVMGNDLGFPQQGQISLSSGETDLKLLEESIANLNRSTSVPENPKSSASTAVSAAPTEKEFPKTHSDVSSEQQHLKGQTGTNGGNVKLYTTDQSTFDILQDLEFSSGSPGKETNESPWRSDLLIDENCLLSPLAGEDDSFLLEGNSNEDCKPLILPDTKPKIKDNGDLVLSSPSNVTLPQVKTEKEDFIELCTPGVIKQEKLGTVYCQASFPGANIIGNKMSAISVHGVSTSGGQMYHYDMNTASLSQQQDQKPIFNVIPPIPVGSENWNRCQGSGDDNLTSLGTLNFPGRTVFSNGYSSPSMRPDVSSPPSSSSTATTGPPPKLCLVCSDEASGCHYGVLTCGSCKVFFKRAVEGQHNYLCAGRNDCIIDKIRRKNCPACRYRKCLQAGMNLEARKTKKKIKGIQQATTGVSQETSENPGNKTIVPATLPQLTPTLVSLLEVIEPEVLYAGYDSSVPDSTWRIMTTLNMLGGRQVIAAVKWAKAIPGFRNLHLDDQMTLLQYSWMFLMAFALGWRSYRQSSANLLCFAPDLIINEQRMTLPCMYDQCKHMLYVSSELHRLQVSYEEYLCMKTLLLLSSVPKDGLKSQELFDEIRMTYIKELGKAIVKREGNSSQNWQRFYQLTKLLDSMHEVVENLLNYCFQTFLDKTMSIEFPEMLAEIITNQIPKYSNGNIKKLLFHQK
The assay is described as follows: Binding to the glucocorticoid receptor, recombinantly produced receptor, cytosol preparations of Sf9 cells, reference [3H]-dexamethasone. To be noted: recombinant GR. The source says:
(§1) The binding of substances to the glucocorticoid receptor (GR) and other steroid hormone-receptors (mineral corticoid receptors (MR), progesterone receptors (PR) and androgen receptors (AR)) is examined with the aid of recombinantly produced receptors. Cytosol preparations of Sf9 cells, which had been infected with recombinant baculoviruses that code for the GR, are used for the binding tests. In comparison to the reference substance [^3H]-dexamethasone, the substances show a high affinity to the GR.

Assay [2] deals with secretion of the cytokine IL-8, triggered by lipopolysaccharide (LPS), in the human monocyte cell line THP-1. As to the kind of experiment: Inhibition of LPS-triggered secretion of the cytokine IL-8 in THP-1 cells (ELISA of supernatant). To be noted: LPS-triggered IL-8 secretion. It is filed as cell-based. As for the experimental part: The concentration of the cytokines was determined in the supernatant by means of commercially available ELISA kits.

The target of assay [3] is T2, progesterone receptors (PR) (Homo sapiens, UniProt P06401).
T2 construct: made in house
T2 sequence (P06401 1-933): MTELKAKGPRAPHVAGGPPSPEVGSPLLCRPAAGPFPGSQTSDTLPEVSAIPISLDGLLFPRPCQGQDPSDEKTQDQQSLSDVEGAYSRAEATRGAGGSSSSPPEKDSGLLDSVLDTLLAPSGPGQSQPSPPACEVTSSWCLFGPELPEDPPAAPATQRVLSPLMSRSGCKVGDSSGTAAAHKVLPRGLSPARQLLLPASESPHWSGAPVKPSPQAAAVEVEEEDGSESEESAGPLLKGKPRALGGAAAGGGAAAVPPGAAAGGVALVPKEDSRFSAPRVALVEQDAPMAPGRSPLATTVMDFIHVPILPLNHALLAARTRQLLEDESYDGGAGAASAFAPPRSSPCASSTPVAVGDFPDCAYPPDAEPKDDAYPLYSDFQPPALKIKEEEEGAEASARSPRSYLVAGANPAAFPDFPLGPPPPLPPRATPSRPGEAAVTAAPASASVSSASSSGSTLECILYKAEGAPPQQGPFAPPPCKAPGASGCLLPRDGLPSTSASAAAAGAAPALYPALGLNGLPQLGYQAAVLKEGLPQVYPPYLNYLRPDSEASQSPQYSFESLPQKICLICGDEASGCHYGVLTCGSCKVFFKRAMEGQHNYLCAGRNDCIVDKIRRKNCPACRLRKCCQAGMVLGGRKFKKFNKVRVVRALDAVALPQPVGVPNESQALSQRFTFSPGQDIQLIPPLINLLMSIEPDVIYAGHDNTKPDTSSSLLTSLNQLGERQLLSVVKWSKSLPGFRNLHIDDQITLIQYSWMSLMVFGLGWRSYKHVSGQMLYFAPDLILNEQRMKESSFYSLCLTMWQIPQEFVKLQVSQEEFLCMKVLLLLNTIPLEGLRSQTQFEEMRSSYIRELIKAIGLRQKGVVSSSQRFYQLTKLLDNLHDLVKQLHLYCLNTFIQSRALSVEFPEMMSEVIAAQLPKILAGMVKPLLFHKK
The assay is described as follows: Binding to other steroid hormone receptors with recombinantly produced receptors: progesterone receptor.
From the text: as §1

Where only a bound is given, the exact number is not on record here.

For orientation: IC50 means the concentration at which inhibition is half-maximal.

For the compound `Cc1ncc2c(NC3c4cc(C)c(F)c(O)c4C(C)(C)CC3(O)C(F)(F)F)ccc(F)c2n1` (racemic) [Example 285, 6-Fluoro-1-[(8-fluoro-2-methylquinazolin-5-yl)amino]-4,4,7-trimethyl-2-(trifluoromethyl)-1,2,3,4-tetrahydronaphthalene-2,5-diol], the IC50 in assay [1] is 86 nM; in assay [2] (Homo sapiens, read-out: inhibition IC50(IL8)), 40 nM; in assay [3], more than 1000 nM. Further, the “eff (IL8 inhibition)” value in assay [2] turned out to be 79%.

The values above are taken from patent publication US7659297B2, “Tetrahydronaphthalene derivatives, process for their production and their use as anti-inflammatory agents” (Bayer Schering Pharma, AG, priority 2003, dated 2010).
